{"source": "ChEMBL document CHEMBL1275576", "about": "“In vitro activity of tomopenem (CS-023/RO4908463) against anaerobic bacteria” (Antimicrob Agents Chemother, 2009)", "key": {"[1]": {"assay": "Half life in human at […] by HPLC method", "type": "ADME, organism-based", "details": "in vivo"}, "Plasma": {"system": "Plasma", "assay": "Plasma protein binding in human at […] by HPLC method", "type": "ADME, cell-free"}, "[2]": {"assay": "Half life in rhesus monkey at 10 mg/kg by HPLC method", "type": "ADME, organism-based, Macaca mulatta", "design": "dose 10 mg/kg", "details": "in vivo"}}}
{"compound": "C[C@@H](O)[C@H]1C(=O)N2C(C(=O)O)=C(S[C@@H]3CN[C@H](C(=O)Nc4cccc(C(=O)O)c4)C3)[C@H](C)[C@H]12", "values": [{"measurement": "half-life", "setting": "[1]", "result": 5, "unit": "h"}, {"measurement": "Activity", "setting": "Plasma", "result": "> 95", "unit": "%"}, {"measurement": "half-life", "setting": "[2]", "result": 5, "unit": "h"}]}
